Biological target: T1, AsLOV2 (Avena sativa, UniProt O49003, C450A)
T1 construct: gene NPH1-1; LOV2 domain, residues 404-547, N-terminal His10-tag kept (first 31 residues not native), E. coli BL21(DE3)
Test: co-purified holoprotein; absorption and fluorescence spectra, FMN triplet lifetime, […] kDa filtration
Assay type: binding
Conditions: 20 mM Tris-HCl pH 7.8, room temperature; before irradiation; no covalent adduct possible

T1 sequence (O49003 entry or part of it C450A): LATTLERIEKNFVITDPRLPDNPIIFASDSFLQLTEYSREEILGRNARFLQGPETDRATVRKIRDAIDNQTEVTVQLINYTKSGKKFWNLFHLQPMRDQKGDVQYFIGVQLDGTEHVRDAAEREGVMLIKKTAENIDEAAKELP

## Cc1cc2nc3c(=O)[nH]c(=O)nc-3n(C[C@H](O)[C@H](O)[C@H](O)COP(=O)(O)O)c2cc1C [flavin mononucleotide]
  co-purified holoprotein; absorption and fluorescence spectra, FMN triplet lifeti: before irradiation there was no free FMN detected in the filtrate
